Data published in DBAASP.
≈ marks a conversion by molar mass, not a printed value. Where “and” joins values, the source holds several entries; their conditions need not be identical. Equal entries are not always repeated.

Experiments:
Assay in all cases: ≥ marks a high value that may be exact or a test limit, other limits are often not marked, values filed in µg/mL are converted to µM
[1] = test system: Streptococcus gordonii Challis DL1
[2] = test system: Streptococcus sanguinis NY101
[3] = test system: Streptococcus mutans UA159
[4] = test system: Streptococcus mitis ATCC 903
[5] = test system: Staphylococcus aureus
[6] = test system: Pseudomonas aeruginosa PAK
[7] = test system: Candida albicans CGMCC 2.2086
[8] = test system: Candida parapsilosis CGMCC 2.3989
[9] = test system: Candida albicans
[10] = test system: Candida tropicalis CGMCC 2.1975
[11] = test system: Escherichia coli K99
[12] = test system: Staphylococcus epidermidis ATCC 12228
[13] = test system: Staphylococcus aureus ATCC 25923
[14] = test system: Escherichia coli K88
[15] = test system: Salmonella enterica subsp. enterica serovar Typhimurium ATCC 14028
[16] = test system: Escherichia coli ATCC 25922
[17] = test system: Escherichia coli 078
[18] = test system: Staphylococcus aureus ATCC 29213
[19] = test system: Salmonella enterica subsp. enterica serovar Typhimurium C77-31
[20] = test system: Salmonella enterica subsp. enterica serovar Pullorum ATCC 7913
[21] = test system: Pseudomonas aeruginosa ATCC 27853
[22] = test system: Staphylococcus aureus ATCC 43300
[23] = test system: Escherichia coli UB1005
[24] = test system: Escherichia coli B
[25] = test system: Pseudomonas aeruginosa
[26] = test system: Bacillus subtilis 168

Row | SMILES | MIC [1] [µM] | MIC [2] [µM] | MIC [3] [µM] | MIC [4] [µM] | MIC [5] [µM] | MIC [6] [µM] | MIC [7] [µM] | MIC [8] [µM] | MIC [9] | MIC [10] [µM] | further results
1 | CC(C)C[C@H](NC(=O)[C@H](CC(C)C)NC(=O)[C@H](CCCCN)NC(=O)[C@H](CC(C)C)NC(=O)[C@H](CC(C)C)NC(=O)[C@H](CCC(N)=O)NC(=O)[C@H](CCCCN)NC(=O)[C@H](CC(C)C)NC(=O)[C@H](CC(C)C)NC(=O)[C@H](CCC(N)=O)NC(=O)[C@@H](N)CC(C)C)C(=O)N[C@@H](CCCCN)C(=O)N[C@@H](CCC(N)=O)C(=O)N[C@@H](Cc1ccccc1)C(N)=O [LQLLKQLLKLLKQF] | 4.63 (≈ 8 µg/mL) | 4.63 (≈ 8 µg/mL) | 4.63 (≈ 8 µg/mL) | 9.27 (≈ 16 µg/mL) | 9.27 (≈ 16 µg/mL) | 4.63 (≈ 8 µg/mL) |  |  |  |  | 
2 | CC[C@H](C)[C@H](NC(=O)[C@H](Cc1ccccc1)NC(=O)[C@H](Cc1cnc[nH]1)NC(=O)[C@H](CCCCN)NC(=O)[C@@H](NC(=O)[C@@H](N)Cc1ccccc1)[C@@H](C)CC)C(=O)N[C@@H](Cc1cnc[nH]1)C(=O)N[C@@H](CCCN=C(N)N)C(=O)N[C@@H](Cc1ccccc1)C(=O)N[C@@H](CO)C(=O)NCC(=O)NCC(=O)N[C@@H](CCCN=C(N)N)C(=O)N[C@@H](Cc1c[nH]c2ccccc12)C(=O)N[C@@H](CCCN=C(N)N)C(=O)N[C@@H](CCCN=C(N)N)C(=O)N[C@@H](CC(C)C)C(=O)N[C@@H](CC(C)C)C(=O)N[C@@H](CCCCN)C(=O)N[C@@H](CCCCN)C(=O)N[C@@H](CC(C)C)C(=O)N[C@@H](Cc1cnc[nH]1)C(=O)N[C@@H](Cc1cnc[nH]1)C(=O)N[C@@H](CC(C)C)C(=O)N[C@@H](CC(C)C)C(=O)N[C@@H](Cc1cnc[nH]1)C(N)=O [FIKHFIHRFSGGRWRRLLKKLHHLLH] | 9.6 (≈ 32 µg/mL) | 4.8 (≈ 16 µg/mL) | 4.8 (≈ 16 µg/mL) | 18.7 (≈ 62.5 µg/mL) | 9.6 (≈ 32 µg/mL) | 9.6 (≈ 32 µg/mL) |  |  |  |  | 
3 | CC[C@H](C)[C@H](NC(=O)CNC(=O)[C@H](CCCCN)NC(=O)[C@@H](NC(=O)[C@H](CC(C)C)NC(=O)[C@H](CC(C)C)NC(=O)[C@@H](NC(=O)[C@H](CCCCN)NC(=O)CNC(=O)[C@@H](NC(=O)[C@@H](N)CCCCN)[C@@H](C)CC)C(C)C)C(C)C)C(=O)N[C@@H](CCCCN)C(=O)N[C@@H](CCCCN)C(=O)N[C@H](C(=O)NCC(=O)N[C@@H](CCCCN)C(=O)N[C@H](C(=O)N[C@@H](CC(C)C)C(N)=O)C(C)C)[C@@H](C)CC [KIGKVLLVKGIKKIGKVL] |  |  |  |  |  |  | ≥ 32 | ≥ 32 | > 64 µM and 32 µM | 16 (≈ 30.9 µg/mL) | 
4 | CC[C@H](C)[C@H](NC(=O)[C@H](Cc1ccccc1)NC(=O)[C@H](Cc1cnc[nH]1)NC(=O)[C@H](CCCCN)NC(=O)[C@@H](NC(=O)[C@H](Cc1ccccc1)NC(=O)[C@@H](NC(=O)[C@H](C)NC(=O)[C@H](CO)NC(=O)[C@H](Cc1cnc[nH]1)NC(=O)[C@H](CC(C)C)NC(=O)[C@H](CC(C)C)NC(=O)[C@H](Cc1cnc[nH]1)NC(=O)[C@H](Cc1cnc[nH]1)NC(=O)[C@H](CC(C)C)NC(=O)[C@H](CCCCN)NC(=O)[C@H](CCCCN)NC(=O)[C@H](CC(C)C)NC(=O)[C@H](CC(C)C)NC(=O)[C@H](CCCN=C(N)N)NC(=O)[C@H](CCCN=C(N)N)NC(=O)[C@H](Cc1c[nH]c2ccccc12)NC(=O)[C@@H](N)CCCN=C(N)N)[C@@H](C)O)[C@@H](C)CC)C(=O)N[C@@H](Cc1cnc[nH]1)C(=O)N[C@@H](CCCN=C(N)N)C(=O)N[C@@H](Cc1ccccc1)C(N)=O [RWRRLLKKLHHLLHSATFIKHFIHRF] | 4.72 (≈ 16 µg/mL) | 4.72 (≈ 16 µg/mL) | 2.36 (≈ 8 µg/mL) | 4.72 (≈ 16 µg/mL) | 9.43 (≈ 32 µg/mL) | 9.43 (≈ 32 µg/mL) |  |  |  |  | 
5 | CC[C@H](C)[C@H](NC(=O)[C@H](CCCN=C(N)N)NC(=O)[C@H](C)NC(=O)[C@H](C)N)C(=O)N[C@H](C(=O)N[C@@H](CC(C)C)C(=O)N[C@@H](CCCN=C(N)N)C(=O)N[C@@H](CC(=O)O)C(=O)N[C@@H](CCCN=C(N)N)C(=O)N[C@@H](Cc1ccccc1)C(=O)N[C@@H](CCCN=C(N)N)C(N)=O)[C@@H](C)CC [AARIILRDRFR] |  |  |  |  |  |  | ≥ 128 | ≥ 128 |  | ≥ 128 | MIC [11]: ≥ 128 µM; MIC [12]: > 128 µM; MIC [13]: > 128 µM; MIC [14]: ≥ 128 µM; MIC [15]: > 128 µM; MIC [16]: > 128 µM; MIC [17]: ≥ 128 µM; MIC [18]: > 128 µM; MIC [19]: ≥ 128 µM; MIC [20]: ≥ 128 µM; MIC [21]: > 128 µM; MIC [22]: > 128 µM; MIC [23]: ≥ 128 µM
6 | CC[C@H](C)[C@H](NC(=O)CNC(=O)[C@H](CCCN=C(N)N)NC(=O)[C@H](Cc1ccccc1)NC(=O)[C@H](CC(C)C)NC(=O)[C@H](CC(C)C)NC(=O)[C@H](Cc1ccccc1)NC(=O)[C@H](CCCN=C(N)N)NC(=O)CNC(=O)[C@@H](NC(=O)[C@@H](N)CCCN=C(N)N)[C@@H](C)CC)C(=O)N[C@@H](CCCN=C(N)N)C(=O)N[C@@H](CCCN=C(N)N)C(=O)N[C@H](C(=O)NCC(=O)N[C@@H](CCCN=C(N)N)C(=O)N[C@@H](Cc1ccccc1)C(=O)N[C@@H](CC(C)C)C(N)=O)[C@@H](C)CC [RIGRFLLFRGIRRIGRFL] |  |  |  |  |  |  | 8 (≈ 18 µg/mL) | 16 (≈ 35.9 µg/mL) | 8 µM and 5.66 µM | 8 (≈ 18 µg/mL) | 
7 | CC[C@H](C)[C@H](NC(=O)[C@H](CC(C)C)NC(=O)[C@H](Cc1cnc[nH]1)NC(=O)CNC(=O)[C@@H]1CCCN1C(=O)[C@@H](NC(=O)[C@H](CCCCN)NC(=O)[C@H](CO)NC(=O)[C@H](Cc1c[nH]c2ccccc12)NC(=O)[C@H](CCSC)NC(=O)CN)[C@@H](C)CC)C(=O)N[C@@H](CCCN=C(N)N)C(N)=O [GMWSKIPGHLIR] |  |  |  |  | > 100 |  |  |  |  |  | MIC [24]: 25 µM (≈ 34.8 µg/mL); MIC [25]: > 100 µM; MIC [26]: ≥ 100 µM
8 | CC[C@H](C)[C@H](NC(=O)CNC(=O)[C@H](CCCCN)NC(=O)[C@H](Cc1ccccc1)NC(=O)[C@H](CC(C)C)NC(=O)[C@H](CC(C)C)NC(=O)[C@H](Cc1ccccc1)NC(=O)[C@H](CCCCN)NC(=O)CNC(=O)[C@@H](NC(=O)[C@@H](N)CCCCN)[C@@H](C)CC)C(=O)N[C@@H](CCCCN)C(=O)N[C@@H](CCCCN)C(=O)N[C@H](C(=O)NCC(=O)N[C@@H](CCCCN)C(=O)N[C@@H](Cc1ccccc1)C(=O)N[C@@H](CC(C)C)C(N)=O)[C@@H](C)CC [KIGKFLLFKGIKKIGKFL] |  |  |  |  |  |  | ≥ 32 | ≥ 32 | 32 µM (≈ 66.5 µg/mL) | 8 (≈ 16.6 µg/mL) | 
9 | CC[C@H](C)[C@H](NC(=O)[C@H](Cc1ccccc1)NC(=O)[C@H](Cc1cnc[nH]1)NC(=O)[C@H](CCCCN)NC(=O)[C@@H](NC(=O)[C@@H](N)Cc1ccccc1)[C@@H](C)CC)C(=O)N[C@@H](Cc1cnc[nH]1)C(=O)N[C@@H](CCCN=C(N)N)C(=O)N[C@@H](Cc1ccccc1)C(=O)N[C@@H](CO)C(=O)N[C@@H](C)C(=O)N[C@H](C(=O)N[C@@H](CCCN=C(N)N)C(=O)N[C@@H](Cc1c[nH]c2ccccc12)C(=O)N[C@@H](CCCN=C(N)N)C(=O)N[C@@H](CCCN=C(N)N)C(=O)N[C@@H](CC(C)C)C(=O)N[C@@H](CC(C)C)C(=O)N[C@@H](CCCCN)C(=O)N[C@@H](CCCCN)C(=O)N[C@@H](CC(C)C)C(=O)N[C@@H](Cc1cnc[nH]1)C(=O)N[C@@H](Cc1cnc[nH]1)C(=O)N[C@@H](CC(C)C)C(=O)N[C@@H](CC(C)C)C(=O)N[C@@H](Cc1cnc[nH]1)C(N)=O)[C@@H](C)O [FIKHFIHRFSATRWRRLLKKLHHLLH] | 9.43 (≈ 32 µg/mL) | 9.43 (≈ 32 µg/mL) | 4.72 (≈ 16 µg/mL) | 9.43 (≈ 32 µg/mL) | 4.72 (≈ 16 µg/mL) | 9.43 (≈ 32 µg/mL) |  |  |  |  | 
